In patent US6686358B2, “Bicyclic amino-pyrazinone compounds” (Les Laboratoires Servier, priority 2000, dated 2004):
pIC50: −log10 of the molar value. Counter-ions that a name gives are not always drawn.

How the values were obtained:
Format in all cases: biochemical
human thrombin = target: T1, human thrombin (Homo sapiens, UniProt P00734); test: Inhibition of thrombin (fibrin formation from fibrinogen, 405 nm); details: human thrombin 0.7 nM, fibrinogen substrate, 20° C., compared with control without product; read-out: concentration inhibiting the enzymatic activity of thrombin by 50% (IC50)
T1 construct: purchased Sigma
Description: For in vitro evaluation of the inhibitory activity of the products of the invention on human thrombin (Sigma, specific activity 3230 NIH units/mg), purified human fibrinogen ([…], Stago) (Fg) was added to a given amount of thrombin (0.7 nM) that had previously been incubated with or without the inhibitor to be tested (20° C., 10 minutes).
Inhibitors, enzymes and substrates are diluted in the same buffer (0.01 mM phosphate buffer, pH 7.4, containing 0.12M sodium chloride and 0.05% bovine serum albumin) and then distributed in a polystyrene microtitre plate in a volume of 50 μl.
The fibrin formed by the thrombin or by the paranitroanilide released by the action of the serine protease is measured spectrophotometrically at 405 nm after from 15 to 30 minutes' reaction at 20° C.

[1] = system: human plasma samples (thrombin time); test: Anti-coagulant activity, thrombin time (TT) in human plasma; details: concentration that doubles the thrombin time, 37° C.
Description: (§1) In order to evaluate the anti-coagulant activity of the compounds of the invention, the thrombin time (TT) and the activated cephalin time (ACT) were determined in human plasma samples. An ST4 coagulometer was used. A plasma deficient in platelets is lyophilised and taken up in distilled water. The TT is obtained using the reagent Thrombine Prest and the ACT is obtained using the reagent Céphaline PTT Automate. Inhibitor or solvent (10 μl) is added to the plasma (90 μl), which is then incubated for 2 minutes at 37° C. 100 μl of Thrombine Prest (TT) or of Céphaline PTT Automate (ACT) are added and at the same time the timer is started.
(§2) Under those conditions, the TT is of the order of 18 seconds and the ACT of the order of 12 seconds. The activity of an antagonist is evaluated by its capacity to prolong the TT and the ACT relative to the control. The effect of the inhibitors is expressed by the concentration in μM that doubles the coagulation time (Ctt2).

[2] = system: human plasma samples (activated cephalin time); test: Anti-coagulant activity, activated cephalin time (ACT) in human plasma; details: concentration that doubles the activated cephalin time, 37° C.
Description: as §1, §2

O=C(NCc1ccc2cc[nH]c2c1)[C@@H]1CCc2cnc(NCCc3ccccn3)c(=O)n21 [Example 18, (6S)-N-[1H-indol-6-ylmethyl)-4-oxo-3-{[2-(2-pyridyl)ethyl]amino}-4,6,7,8-tetrahydropyrrolo[1,2-a]pyrazine-6-carboxamide]
pIC50 (human thrombin): 7.66 | TT Ctt2 [1]: 0.28 µM | ACT Ctt2 [2]: 3.07 µM

Nc1noc2cc(CNC(=O)[C@@H]3CCc4cnc(NCCc5ccccn5)c(=O)n43)ccc12 [Example 17]
pIC50 (human thrombin): 6.85

O=C(NCc1ccccc1OCc1ccccn1)[C@@H]1CCc2cnc(NCCc3ccccn3)c(=O)n21 [Example 10, (6S)-4-oxo-3-{[2-(2-pyridyl)ethyl]amino}-N-[2-(2-pyridylmethoxy)-benzyl]-4,6,7,8-tetrahydropyrrolo[1,2-a]pyrazine-6-carboxamide]
pIC50 (human thrombin): 6.87

NC(=NO)c1ccc(CNC(=O)[C@@H]2CCc3cnc(NCC(c4ccccc4)c4ccccc4)c(=O)n32)cc1 [Example 1, (6S)-N-{4-[amino(hydroxyimino)methyl]benzyl}-3-[(2,2-diphenyl-ethyl)amino]-4-oxo4,6,7,8-tetrahydropyrrolo[1,2-a]pyrazine-6-carboxamide]
pIC50 (human thrombin): 6.85

N=C(N)NOCCNC(=O)[C@@H]1CCc2cnc(NCC(c3ccccc3)c3ccccc3)c(=O)n21 [Example 3, (6S)-N-[2-({[amino(imino)methyl]amino}oxy)ethyl]-3-[(2,2-diphenyl-ethyl)amino]-4-oxo4,6,7,8-tetrahydropyrrolo[1,2-a]pyrazine-6-carboxamide dihydrochloride]
pIC50 (human thrombin): 8.40

O=C(NCc1ccccc1OCC1=NCCN1)[C@@H]1CCc2cnc(NCCc3ccccn3)c(=O)n21 [Example 15, (6S)-N-[2-(4,5-dihydro-1H-imidazol-2-ylmethoxy)benzyl]4-oxo-3-{[2-(2-pyridyl)ethyl]amino}-4,6,7,8-tetrahydropyrrolo[1,2-a]-pyrazine-6-carboxamide]
pIC50 (human thrombin): 7.92 | TT Ctt2 [1]: 0.19 µM | ACT Ctt2 [2]: 1.91 µM

NC(=NO)c1ccc(CNC(=O)[C@@H]2CCc3cnc(NCCc4ccccn4)c(=O)n32)cc1 [Example 2, (6S)-N-{4-[amino(hydroxyimino)methyl]benzyl}-4-oxo-3-{(2-(2-pyridyl)ethyl]amino}-4,6,7,8-tetrahydropyrrolo[1,2-a]pyrazine-6-carboxamide]
pIC50 (human thrombin): 6.51 | TT Ctt2 [1]: 3.6 µM | ACT Ctt2 [2]: 20 µM
